Experimental data taken from patent publication US20260028364A1, “CATIONIC CHROMENONES AND THEIR USE IN ONCOLOGY” (FLORATEK PHARMA S.A., priority 2022, published 2026).
Each block holds one molecule with its values, some of them ahead of it.

Columns and labels:
Type in all cases: cell-based
Raji = test: CellTiter-Glo cell viability, Raji; details: Homo sapiens; Raji cells, 72 h with compound
Description: (§1) Antitumor activity against a panel of cancer cell lines Antitumor activity of the compounds was assessed by using the CellTiter-Glow® Luminescent Cell Viability assay (Promega #G7572) according to the manufacturer's instructions. The compounds were tested at 5 or 6 concentrations in 1:2 dilution increments (highest concentration 10 µM) in triplicate well conditions.
(§2) Tumor cells were grown at 37° C. in a humidified atmosphere with 5% CO2 in RPMI 1640 or DMEM medium, supplemented with 10% (v/v) fetal calf serum and 50 μg/ml gentamicin for up to 20 passages, and were passaged once or twice weekly. Cells were harvested using TrypLE or PBS buffer containing 1 mM EDTA, and the percentage of viable cells is determined using a cell counter.
(§3) Cells were harvested from exponential phase cultures, counted and plated in 96 well flat-bottom microtiter plates at a cell density depending on the cell line's growth rate (4,000-20,000 cells/well depending on the cell line's growth rate) in RPMI 1640 or DMEM medium supplemented with 10% (v/v) fetal calf serum and 50 μg/ml gentamicin (140 μl/well). Cultures were incubated at 37° C. and 5% CO2 in a humidified atmosphere. […] Viability of cells was quantified by the CellTiter-Glow® Luminescent Cell Viability assay (Promega #G7572). Luminescence was measured with the microplate luminometer (En Vision Perkin Elmer). […]

A375 = test: CellTiter-Glo cell viability, A375; details: A375 cells, 72 h with compound
Description: as §1, §2
(§4) Cells were harvested from exponential phase cultures, counted and plated in 96 well flat-bottom microtiter plates at a cell density depending on the cell line's growth rate (4,000-20,000 cells/well depending on the cell line's growth rate) in RPMI 1640 or DMEM medium supplemented with 10% (v/v) fetal calf serum and 50 μg/ml gentamicin (140 μl/well). Cultures were incubated at 37° C. and 5% CO2 in a humidified atmosphere. After 24 h, 10 μl of test compounds or control medium are added, and left on the cells for another 72 h. Compounds were serially diluted in DMSO, transferred in cell culture medium, and added to the assay plates. The DMSO concentration was kept constant at <0.2% v/v across the assay plate. Viability of cells was quantified by the CellTiter-Glow® Luminescent Cell Viability assay (Promega #G7572). Luminescence was measured with the microplate luminometer (En Vision Perkin Elmer).
(§5) Sigmoidal concentration-response curves were fitted to the data points (test-versus-control, T/C values) obtained for each tumor model using Graph Pad prism 5.02 software. IC50 values are reported as absolute IC50 values, being the concentration of test compound at the intersection of the concentration-response curves with T/C=50%.

MIA-PaCa-2 = test: CellTiter-Glo cell viability, MIA-PaCa-2; details: MIA-PaCa-2 cells, 72 h with compound
Description: as §1, §2, §4, §5

HCC-15 = test: CellTiter-Glo cell viability, HCC-15; details: HCC-15 cells, 72 h with compound
Description: as §1, §2, §4, §5

NCI-H1299 = test: CellTiter-Glo cell viability, NCI-H1299; details: Homo sapiens, NCI-H1299; H1299 cells, 72 h with compound
Description: as §1, §2, §4, §5

SK-Mel-5 = test: CellTiter-Glo cell viability, SK-Mel-5; details: SK-Mel-5 cells, 72 h with compound
Description: as §1, §2, §4, §5

MCF-7 = test: CellTiter-Glo cell viability, MCF-7; details: Homo sapiens, MCF7; MCF-7 cells, 72 h with compound
Description: as §1, §2, §4, §5

U87MG = test: CellTiter-Glo cell viability, U87MG; details: Homo sapiens, U-87 MG; U87MG cells, 72 h with compound
Description: as §1, §2, §4, §5

A-673 = test: CellTiter-Glo cell viability, A-673; details: Homo sapiens, A673; A-673 cells, 72 h with compound
Description: as §1, §2, §4, §5

BxPC-3 = test: CellTiter-Glo cell viability, BxPC-3; details: BxPC-3 cells, 72 h with compound
Description: as §1, §2, §4, §5

LNCaP = test: CellTiter-Glo cell viability, LNCaP; details: LNCaP cells, 72 h with compound
Description: as §1, §2, §3

LoVo = test: CellTiter-Glo cell viability, LoVo; details: LoVo cells, 72 h with compound
Description: as §1, §2, §3

22Rv1 = test: CellTiter-Glo cell viability, 22Rv1; details: 22Rv1 cells, 72 h with compound
Description: as §1, §2, §4, §5

Kelly = test: CellTiter-Glo cell viability, Kelly; details: Kelly cells, 72 h with compound
Description: as §1, §2, §4, §5

H460 = test: CellTiter-Glo cell viability, H460; details: H460 cells, 72 h with compound
Description: as §1, §2, §3

MDA-MB-468 = test: CellTiter-Glo cell viability, MDA-MB-468; details: MDA-MB-468 cells, 72 h with compound
Description: as §1, §2, §3

H69 = test: CellTiter-Glo cell viability, H69; details: H69 cells, 72 h with compound
Description: as §1, §2, §4, §5

A2058 = test: CellTiter-Glo cell viability, A2058; details: A2058 cells, 72 h with compound
Description: as §1, §2, §4, §5

SK-N-SH = test: CellTiter-Glo cell viability, SK-N-SH; details: SK-N-SH cells, 72 h with compound
Description: as §1, §2, §4, §5

NFKB = test: SelectScreen CellSensor pathway inhibition, NFKB; details: NFKB-bla Jurkat, stimulus TNF-alpha
Description: Inhibition of various cellular pathways known to be involved in malignancy was tested using the SelectScreen Cell-based Pathway Profiling GeneBLAzer™ cell signaling pathway specific CellSensor™ cell lines ((Thermo Fisher). The assay is based on a beta-lactamase reporter activity which is modulated and can be measured quantitatively and selectively with the LiveBLAzer™-FRET B/G Loading Substrate. SelectScreen Cell-Based Pathway Profiling Service uses XLfit from IDBS. The dose response curve is curve fit to model number 205 (sigmoidal dose-response model). Custom logic was built by Thermo Fisher for the data analysis tool to address the different compound characteristics that can be observed with functional assays.
NFKB—NFKB-bla Jurkat—Inhibitor Screen, Activated by TNF-Alpha
NFKB-bla Jurkat cells are thawed and resuspended in Assay Media (DMEM, 10% dialyzed FBS, 25 mM HEPES pH 7.3, 0.1 mM NEAA, 100 U/mL/100 μg/mL Pen/Strep) to a concentration of 625,000 cells/mL. […] 4 μL of 10×control activator TNF-alpha at the pre-determined EC80 concentration is added to wells containing the control inhibitor or compounds.
The plate is incubated for 5 hours at 37° C./5% CO2 in a humidified incubator. […] The plate is read on a fluorescence plate reader.

SMILES: COc1c(O)ccc2c(=O)c(-c3ccc(CCCC[P+](c4ccccc4)(c4ccccc4)c4ccccc4)cc3)coc12 [SND530, (4-(4-(7-Hydroxy-8-methoxy-4-oxo-4H-chromen-3-yl)phenyl)butyl)triphenylphosphonium bromide]
IC50 (Raji): 140 nM | IC50 (A375; Homo sapiens, A-375): 1500 nM | IC50 (MIA-PaCa-2; Homo sapiens): 1200 nM | IC50 (HCC-15; HCC15): 3700 nM | IC50 (NCI-H1299): 1400 nM | IC50 (SK-Mel-5; Homo sapiens): 1100 nM | IC50 (MCF-7): 1000 nM | IC50 (U87MG): 1900 nM | IC50 (A-673): 500 nM

SMILES: COc1ccc2c(=O)c(-c3cccc(CC[P+](c4ccccc4)(c4ccccc4)c4ccccc4)c3)coc2c1OC [SND542]
IC50 (BxPC-3): 1460 nM | IC50 (LNCaP): 690 nM | IC50 (LoVo): 4830 nM | IC50 (A375): 760 nM | IC50 (22Rv1): 800 nM | IC50 (MIA-PaCa-2): 430 nM | IC50 (HCC-15): 1470 nM | IC50 (Kelly): 1710 nM | IC50 (H460): 1780 nM | IC50 (MDA-MB-468): 510 nM | IC50 (SK-Mel-5): 870 nM | IC50 (H69): 210 nM | IC50 (A2058): 690 nM | IC50 (SK-N-SH): 2750 nM

SMILES: COc1ccc2c(=O)c(-c3ccc(CC[P+](c4ccccc4)(c4ccccc4)c4ccccc4)cc3)coc2c1OC [SND550]
IC50 (A375; Homo sapiens, A-375): 920 nM | IC50 (22Rv1; Homo sapiens): 750 nM | IC50 (MIA-PaCa-2; Homo sapiens): 4300 nM | IC50 (HCC-15; HCC15): 1300 nM | IC50 (NCI-H1299): 1300 nM | IC50 (H69; Homo sapiens, NCI-H69): 680 nM | IC50 (SK-N-SH; Homo sapiens): 3690 nM

The next lines start with results.

IC50 (BxPC-3): 1810 nM | IC50 (LNCaP): 680 nM | IC50 (A375): 1510 nM | IC50 (22Rv1): 920 nM | IC50 (MIA-PaCa-2): 630 nM | IC50 (HCC-15): 1340 nM | IC50 (H460): 2000 nM | IC50 (MDA-MB-468): 560 nM | IC50 (SK-Mel-5): 970 nM | IC50 (SK-N-SH): 3870 nM
SMILES: COc1ccc2c(=O)c(-c3cccc(C[P+](c4ccccc4)(c4ccccc4)c4ccccc4)c3)coc2c1OC [SND543]
IC50 (Kelly): 1440 nM | IC50 (H69): 970 nM | IC50 (A2058): 980 nM

IC50 (NFKB): 240 nM
SMILES: CC1=C(CO)C(=O)O[C@@H]([C@@H](C)[C@H]2CC[C@H]3[C@@H]4C[C@H]5O[C@]56[C@@H](O)C=CC(=O)[C@]6(C)[C@H]4CC[C@]23C)C1 [Withaferin A, reference compound]
